Where two headings read alike, the source gives them in different places.
Legend:
MM.1S cells = experiment: MM1.S 10 Day Proliferation Assay (CellTiter-Glo); assay type: cell-based, Human
Description: Human B lymphoblast cell line MM.1S was obtained from American Type Culture Collection (ATCC), Manassas, VA USA, Cat. MM.1S (ATCC® CRL-2974™). Cells were cultured in RPMI (Thermo Fisher Scientific/Gibco Life Technologies Cat. #111875-093) plus 10% (v/v) FBS (Thermo Fisher Scientific/Gibco Life Technologies Cat. #26140-079) and 1% Penicillin-Streptomycin (Thermo Fisher Scientific/Gibco Life Technologies Cat. #15070063) at 37° C. in 5% CO2.
MM1.S cells were trypsinized cell viability count performed, and cells suspended in complete media at 5,556 cells/ml. Cells were then seeded (90 μl/well) into a 96-well round black/clear bottom, ULA (Ultra-Low Attachment surface plate (Corning cat #4520) at a density of 500 cells/well. Cells were then incubated for 16 hours at 37° C. and 5% CO2. Compound dilution plates were prepared in 96-well, clear U-bottom, polypropylene plates (Corning 3365) in 100% DMSO at 10 mM stock concentration in duplicate wells, using a 10-point serial dilution (1:3 dilutions). Compounds were diluted to 1:100 in growth medium. Then 10 μl of diluted compounds were added to each well of the cell plates using a Beckman FX liquid handling system such that the highest compound concentration tested was 10 μM final, with a 0.1% final DMSO concentration in the total volume of 100 μl. Plates were incubated for 10 total days at 37° C. and 5% CO2. Fresh media containing compound was refreshed at 5 days treatment.
Finally, the treatment plates were removed from the incubator and 100 μl of CellTiter-Glo Luminescent reagent was added to each well, and plates were equilibrated in the dark for 30 minutes. Plates were read on the PHERAstar plate reader using the 96-well with Luminescent reading mode. IC50 values were calculated using a four-parameter fit with GraphPad Prism version 9.5.1 or in house modified IDBS ActivityBase data analyzing package.

KAT2A = KAT2A (Homo sapiens (Human), UniProt Q92830); experiment: KAT2A acetyltransferase biochemical assay (RapidFire mass spectrometry, AcCoA to CoA)
H3K9AC (HT1080 cells) = experiment: H3K9AC Sandwich ELISA Assay in HT1080 cells (KAT2A primary cell-based screening assay); parameters: species or system Human
Method in brief: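 HT1080 fibrosarcoma cells seeded 16 h, then treated 24 h at 37 °C with 10-point 1:3 compound dilutions (top 10 µM final, 0.1% DMSO). Acid lysates neutralized with butyrate/PMSF; H3K9ac measured by total-H3-capture sandwich ELISA with luminescent HRP readout, IC50 by four-parameter fit.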

[1] = read-out: KAT2A Ki at 1 μM AcCoA, 5 μM H3 1-21 peptide, 0.5 nM KAT2A, 90-minute reaction
[2] = Homo sapiens, HT-1080, H3K9AC sandwich ELISA

KAT2A, sequence (Q92830 whole entry): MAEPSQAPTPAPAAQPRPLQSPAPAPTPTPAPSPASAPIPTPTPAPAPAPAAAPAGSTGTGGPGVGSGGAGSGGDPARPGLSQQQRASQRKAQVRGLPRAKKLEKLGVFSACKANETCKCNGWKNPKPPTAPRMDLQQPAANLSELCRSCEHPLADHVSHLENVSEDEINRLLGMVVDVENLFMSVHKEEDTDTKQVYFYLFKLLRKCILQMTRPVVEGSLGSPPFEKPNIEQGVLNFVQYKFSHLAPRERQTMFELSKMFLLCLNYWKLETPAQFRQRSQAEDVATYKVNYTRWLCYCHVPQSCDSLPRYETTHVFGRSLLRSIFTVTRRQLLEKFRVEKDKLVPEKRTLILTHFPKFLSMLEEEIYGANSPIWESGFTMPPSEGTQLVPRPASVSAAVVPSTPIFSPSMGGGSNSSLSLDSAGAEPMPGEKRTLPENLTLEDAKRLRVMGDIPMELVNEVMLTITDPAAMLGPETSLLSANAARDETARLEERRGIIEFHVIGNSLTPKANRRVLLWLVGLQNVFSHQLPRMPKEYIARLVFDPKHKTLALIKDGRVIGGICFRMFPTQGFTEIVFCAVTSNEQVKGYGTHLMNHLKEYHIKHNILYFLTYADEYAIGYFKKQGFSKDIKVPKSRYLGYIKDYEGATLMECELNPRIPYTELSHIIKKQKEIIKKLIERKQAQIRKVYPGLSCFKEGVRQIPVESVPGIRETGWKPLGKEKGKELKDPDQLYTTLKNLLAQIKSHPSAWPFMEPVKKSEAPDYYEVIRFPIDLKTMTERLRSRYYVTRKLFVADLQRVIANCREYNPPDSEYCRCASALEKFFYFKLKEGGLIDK

SMILES	IC50 (MM.1S cells)	Ki (KAT2A; [1])	IC50 (H3K9AC (HT1080 cells); H3K9AC sandwich ELISA)	IC50 (MM.1S cells; Homo sapiens, MM1.S, 240 h)	IC50 (H3K9AC (HT1080 cells); [2])	Ki (KAT2A; KAT2A Ki at 1 μM AcCoA, 5 μM H3 1-21 peptide, 0.5 nM KAT2A, 90-minute reaction)
C[C@H](C(=O)O)c1ccc(O[C@@H]2CC[C@@H](NC(=O)[C@@]3(F)CNC4(CCC4)C3)C2)c(-c2cccc(F)c2C2CCC2)c1 (single isomer, unassigned) [Example A20]	186 nM	2.53 nM	9.3 nM			
CC(C)c1c(F)cccc1-c1cc(C(C)(C)C(=O)O)ccc1O[C@@H]1CC[C@@H](NC(=O)[C@@]2(F)CNC3(CCC3)C2)C1 (single isomer, unassigned) [Example A21]	> 10000 nM	> 99.9 nM	> 1000 nM			
CC(C)c1c(F)cccc1-c1cc(C(C)(C)C(=O)O)ccc1O[C@@H]1CC[C@@H](NC(=O)[C@@]2(F)CNC3(CCC3)C2)C1 (single isomer, unassigned) [Example A22]	101 nM	0.34 nM	4.33 nM			
O=C(O)Cc1ccc(O[C@@H]2CC[C@@H](NC(=O)[C@@]3(F)CNC4(CCCC4)C3)C2)c(-c2cccc(F)c2C2CCC2)c1 (single isomer, unassigned) [Example A25]		0.68 nM	4.22 nM	26 nM		
CC(C)(C(=O)O)c1ccc(O[C@@H]2CC[C@@H](NC(=O)[C@@]3(F)CNCC4(CCC4)C3)C2)c(-c2cccc(F)c2C2CCC2)c1 (single isomer, unassigned) [Example A27]		0.16 nM	7.6 nM	26.3 nM		
O=C(O)c1ccc(O[C@@H]2CC[C@@H](NC(=O)[C@@]3(F)CNCC4(CCC4)C3)C2)c(-c2cccc(F)c2C2CCC2)c1 (single isomer, unassigned) [Example A34]		0.21 nM	1.4 nM	7.8 nM		
O=C(O)c1ccc(O[C@@H]2CC[C@@H](NC(=O)[C@@]3(F)CNC4(CCCC4)C3)C2)c(-c2cccc(F)c2C2CCC2)c1 (single isomer, unassigned) [Example A36]		0.1 nM	0.7 nM	3.5 nM		
CC1(C)CNCC(F)(C(=O)N[C@@H]2CC[C@@H](Oc3ccc(C(=O)O)cc3-c3cccc(F)c3C3CCC3)C2)C1 (single isomer, unassigned) [Example A38]		0.02 nM	4 nM	18.3 nM		
CC(C)c1ccccc1-c1cc(C(=O)O)ccc1O[C@@H]1CC[C@@H](NC(=O)[C@@]2(F)CNC3(CCCC3)C2)C1 (single isomer, unassigned) [Example A40]	> 1000 nM	> 99.9 nM	> 1000 nM			
CCc1c(F)cccc1-c1cc(C(=O)O)ccc1O[C@@H]1CC[C@@H](NC(=O)[C@@]2(F)CNC3(CCCC3)C2)C1 (single isomer, unassigned) [Example A42]	37.4 nM	0.41 nM	8.4 nM			
CCc1c(F)cccc1-c1cc(C(=O)O)ccc1O[C@@H]1CC[C@@H](NC(=O)[C@@]2(F)CNC3(CCCC3)C2)C1 (single isomer, unassigned) [Example A43]	> 1000 nM	> 99.9 nM	> 1000 nM			
CC(C)(C(=O)NS(=O)(=O)N1CC(F)C1)c1ccc(O[C@@H]2CC[C@@H](NC(=O)[C@@]3(F)CNC4(CCC4)C3)C2)c(-c2cccc(F)c2C2CCC2)c1 (single isomer, unassigned) [Example B5]		0.09 nM		13.3 nM	9.93 nM	
CN1C[C@](F)(C(=O)N[C@@H]2CC[C@@H](Oc3ccc(C(C)(C)C(=O)NS(C)(=O)=O)cc3-c3cccc(F)c3C3CCC3)C2)CC1(C)C (single isomer, unassigned) [Example B7]		3.78 nM		102 nM	20.9 nM	
CC(C)(C(=O)NS(=O)(=O)C1CC1)c1ccc(O[C@@H]2CC[C@@H](NC(=O)[C@]3(F)CNC4(CCC4)C3)C2)c(-c2cccc(F)c2C2CCC2)c1 (single isomer, unassigned) [Example B12]		0.18 nM		14.1 nM	1.4 nM	
CCS(=O)(=O)NC(=O)C(C)(C)c1ccc(O[C@@H]2CC[C@@H](NC(=O)[C@@]3(F)CNC(C)(C)C3)C2)c(-c2cccc(F)c2C2CCC2)c1 (single isomer, unassigned) [Example B14]	553 nM	1.83 nM	49.1 nM			
CS(=O)(=O)NC(=O)Cc1ccc(O[C@@H]2CC[C@@H](NC(=O)C3(F)CNC4(CCCC4)C3)C2)c(-c2cccc(F)c2C2CCC2)c1 (single isomer, unassigned) [Example B16]				11.6 nM	2.68 nM	0.08 nM
CC(C)S(=O)(=O)NC(=O)C(C)(C)c1ccc(O[C@@H]2CC[C@@H](NC(=O)[C@@]3(F)CNC(C)(C)C3)C2)c(-c2cccc(F)c2C2CCC2)c1 (single isomer, unassigned) [Example B17]	41.7 nM	0.1 nM	3.49 nM			
CC(C)S(=O)(=O)NC(=O)C(C)(C)c1ccc(O[C@@H]2CC[C@@H](NC(=O)[C@@]3(F)CNC(C)(C)C3)C2)c(-c2cccc(F)c2C2CCC2)c1 (single isomer, unassigned) [Example B18]	1270 nM	16.1 nM	121 nM			
CCS(=O)(=O)NC(=O)C(C)(C)c1ccc(O[C@@H]2CC[C@@H](NC(=O)[C@@]3(F)CNCC(C)(C)C3)C2)c(-c2cccc(F)c2C2CCC2)c1 (single isomer, unassigned) [Example B22]		0.09 nM		2.51 nM	2.38 nM	
CC(C)(C(=O)NS(=O)(=O)C1CC1)c1ccc(O[C@@H]2CC[C@@H](NC(=O)[C@@]3(F)CNC4(CCCC4)C3)C2)c(-c2cccc(F)c2C2CCC2)c1 (single isomer, unassigned) [Example B26]		0.06 nM		7.4 nM	2.2 nM	
CC(C)S(=O)(=O)NC(=O)C(C)(C)c1ccc(O[C@@H]2CC[C@@H](NC(=O)[C@@]3(F)CNCC(C)(C)C3)C2)c(-c2cccc(F)c2C2CCC2)c1 (single isomer, unassigned) [Example B30]		0.09 nM		4.2 nM	1.7 nM	
CCS(=O)(=O)NC(=O)C(C)(C)c1ccc(O[C@@H]2CC[C@@H](NC(=O)[C@@]3(F)CNCC4(CCC4)C3)C2)c(-c2cccc(F)c2C2CCC2)c1 (single isomer, unassigned) [Example B31]		0.04 nM	2.1 nM	1.4 nM		
CC(C)(C(=O)NS(=O)(=O)C1(C)CC1)c1ccc(O[C@@H]2CC[C@@H](NC(=O)[C@@]3(F)CNC4(CCC4)C3)C2)c(-c2cccc(F)c2C2CCC2)c1 (single isomer, unassigned) [Example B34]		0.04 nM		8.4 nM	3.1 nM	
CCc1c(F)cccc1-c1cc(C(C)(C)C(=O)NS(C)(=O)=O)ccc1O[C@@H]1CC[C@@H](NC(=O)[C@@]2(F)CNC3(CCC3)C2)C1 (single isomer, unassigned) [Example C11]		2.22 nM		253 nM	21.6 nM	
CC(C)c1c(F)cccc1-c1cc(C(C)(C)C(=O)NS(C)(=O)=O)ccc1O[C@@H]1CC[C@@H](NC(=O)[C@@]2(F)CNC3(CCC3)C2)C1 (single isomer, unassigned) [Example C20]	> 10000 nM	708 nM	> 1000 nM			
CC(C)(C(=O)NS(=O)(=O)C1(C)CC1)c1ccc(O[C@@H]2CC[C@@H](NC(=O)[C@@]3(F)CNC4(CCC4)C3)C2)c(-c2cccc(F)c2C2CC2)c1 (single isomer, unassigned) [Example C22]	7.8 nM	0.14 nM	4.49 nM			
O=C(Cc1ccc(O[C@@H]2CC[C@@H](NC(=O)[C@@]3(F)CNC4(CCC4)C3)C2)c(-c2cccc(F)c2C2CCC2)c1)NS(=O)(=O)C1CC1 (single isomer, unassigned) [Example C31]		0.02 nM		2.85 nM	1.78 nM	
CC1(C)CNC[C@](F)(C(=O)N[C@@H]2CC[C@@H](Oc3ccc(C(C)(C)C(=O)NS(=O)(=O)C4(C)CC4)cc3-c3cccc(F)c3C3CCC3)C2)C1 (single isomer, unassigned) [Example C35]		0.14 nM		7.8 nM	3.5 nM	
CC1(C)CNC[C@](F)(C(=O)N[C@@H]2CC[C@@H](Oc3ccc(C(C)(C)C(=O)NS(C)(=O)=O)cc3-c3cccc(F)c3C3CCC3)C2)C1 (single isomer, unassigned) [Example C37]		0.06 nM		11 nM	3 nM	

Source: patent US20250188030A1, “Biphenyl and Phenylpyridine Compounds” (Pfizer Inc., priority 2023, published 2025)
